Read-outs that look alike come from different tables or passages of the source.
What was measured:
[1] = test system: hypertrophied bladder (detrussor) smooth muscle; assay: Inhibition of spontaneous contractions in vivo (conscious female rats with hypertrophied bladders, cystometry); design: species or system Female Sprague-Dawley rats; settings: hypertrophied rat bladder model
Text: In addition, we tested the ability of compounds to inhibit the hyperactivity of hypertrophied bladder (detrussor) smooth muscle in conscious female rats with hypertrophied bladders and thereby alleviate urinary incontinence in rats according to the following protocol described by Malmgren (A. Malmgren, K. E. Andersson, C. Sjogren, P. O. Andersson, Effects of pinacidil and Cromakalim (BRL 34915) on Bladder Function in Rats with Detrusor Instability, J. Urol. 142: 1134, 1989.):
Female Sprague-Dawley rats, ranging in weight from 190-210 g are used. Up to 25 animals are prepared each time. After developemnt of bladder hypertrophy 4-8 animals are used per test.
Compounds are dissolved in PEG-200 and administered by gastric gavage or intraveneously in a volume of 5 ml/kg. For primary screening all drugs are administered at the arbitrary dose of 10 mg/kg p.o. to groups of 4 rats.
The animals are anesthetized with halothane. Through a midline incision the bladder and urethra are exposed and a ligature of 4-0 silk is tied around the proximal urethra in the presence of a stainless steel rod (1 mm diameter) to produce a partial occlusion. The rod is then removed. The abdominal region is closed using surgical staples and each rat receives 150,000 units of bicillin C-R. The animals ar allowed six weeks to develop sufficient bladder hypertrophy. After six weeks, the ligature is removed under halothane anesthesia and a catheter (PE 60) with a cuff is placed in the dome of the bladder and secured with a purse string suture. The catheter is tunneled under the skin and exteriorized through an opening in the back of the neck. The abdominal incision is sutured and the free end of the catheter sealed. In order to prevent infections the rats receive an injection of bicillin C-R (150000 units/rat). Two days later the animals are used in cystometrical evaluations, The animals are placed in the metabolic cages and the catheter is attached (using a "T" connector) to a Statham pressure transducer (Model P23Db) and to a Harvard infusion pump. A plastic beaker attached to a force displacement transducer (Grass FTO3) is placed under the rat's cage to collect and record urine volume. Animals are allowed 15-30 min t rest before the saline infusion (20 ml/hr for 20 minutes) is started for the first cystometry period. Two hours after the first cystometry period, the rats are dosed with the vehicle or the test compound and one hour later a second cystometry is performed.
The following urodynamic variables are recorded:
Basal bladder pressure=the lowest bladder pressure during cystometry
Threshold pressure=bladder pressure immediately prior to micturition
Micturition volume=volume expelled
Micturition pressure=peak pressure during voiding
Spontaneous activity=mean amplitude of bladder pressure fluctuations during filling
Presentation of results: The mean value of each variable is calculated before and after compound administration. For each compound the changes in the variables measured are compared to the values obtained before treatment and expressed as percent inhibition. The data are also subjected to 2-way analysis of variance to determine significant (p<0.05) changes in the variable measured.
Criteria for Activity: The most characteristic finding in this rat model is spontaneous bladder contractions which develop during filling. The compounds which inhibit spontaneous contractions by at least 50% at 10 mg/kg p.o. or i.v. (arbitrary chosen dose) are considered active.

[2] = test system: Isolated Rat Bladder Strips; assay: Inhibition of contractions in isolated rat bladder strips (KCl-enhanced contractile activity; smooth muscle relaxation); assay type: cell-based, Sprague-Dawley rats; settings: for inhibition at 30 µM: read-out: Percent inhibition at 30 μM (I)
Outline: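 Bladder strips from Sprague-Dawley rats were held in 37 °C PSS (pH 7.4, 95% O2/5% CO2) at 1.5 g resting tension with isometric force recording. Contractions were enhanced by an extra 15 mM KCl, then cumulative compound concentrations were added, each measured over the last minute of 30 min. IC50 is 50% inhibition of pre-drug contractile activity from the concentration-response curve.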

[3] = 0.5 h, isolated rat bladder strips, 15 mM additional KCl, 30 minute challenge, read-out: IC50 (50% inhibition of pre-drug contractile activity)

Compound	IC50 [2, 3]	% Red (F): percent reduction in the total number of spontaneous contractions ([1]; 3 mg/kg p.o.)	% Red (F): percent reduction in the total number of spontaneous contractions ([1]; 10 mg/kg p.o.)	further results
CC(Nc1c(NCc2ccc(C#N)cc2Cl)c(=O)c1=O)C(C)(C)C (centres unmarked) [Example 6, 3-Chloro-4-{[3,4-dioxo-2-(1,2,2-trimethyl-propylamino)-cyclobut-1-enylamino]-methyl}-benzonitrile]	660 ± 200 nM	-51 ± 6%	-71 ± 3%	inhibition at 30 µM ([2]; Rattus norvegicus): 41.2%
Cc1ccc(CNc2c(NC(C)(C)C)c(=O)c2=O)c(C)c1 [Example 8, 3-tert-Butylamino-4-(2,4-dimethyl-benzylamino)-cyclobut-3-ene-1,2-dione]	630 ± 150 nM	-38 ± 7%		
CCc1cc(C#N)ccc1CNc1c(NC(C)(C)C)c(=O)c1=O [Example 27, 4-[(2-tert-Butylamino-3,4-dioxo-cyclobut-1-enylamino)-methyl]-3-ethyl-benzonitrile]	240 ± 30 nM		-20 ± 22%	
Cc1cccc(Cl)c1CNc1c(NC(C)(C)C)c(=O)c1=O [Example 31, 3-tert-Butylamino-4-(2-chloro-6-methyl-benzylamino)-cyclobut-3-ene-1,2-dion]	1100 ± 300 nM		-38 ± 13%	
Cc1cc(Br)cc(C)c1CNc1c(NC(C)(C)C)c(=O)c1=O [Example 36, 3-(4-Bromo-2,6-dimethyl-benzylamino)-4-tert-butylamino-cyclobut-3-ene-1,2-dione]	290 ± 20 nM	-83 ± 9%		

These reach a lower IC50 [2, 3]. Values come first.

IC50 [2, 3]	Compound	% Red (F): percent reduction in the total number of spontaneous contractions ([1]; 3 mg/kg p.o.)	% Red (F): percent reduction in the total number of spontaneous contractions ([1]; 10 mg/kg p.o.)	further results
180 ± 30 nM	C[C@@H](Nc1c(NCc2ccc(C#N)cc2Cl)c(=O)c1=O)C(C)(C)C [Example 30, (R)-3-Chloro-4-{[3,4-dioxo-2-(1,2,2-trimethyl-propylamino)-cyclobut-1-enylamino]-methyl}-benzonitrile]	-68 ± 10%		inhibition at 30 µM ([2]; Rattus norvegicus): 23%
140 ± 20 nM	CC(C)(C)Nc1c(NCc2ccc(C#N)cc2Cl)c(=O)c1=O [Example 2, 4-[(2-tert-Butylamino-3,4-dioxo-cyclobut-1-enylamino)-methyl]-3-chloro-benzonitrile]			% Red (F): percent reduction in the total number of spontaneous contractions ([1]; 1 mg/kg p.o., prior lot of this compound (mp 234-236° C.)): -34 ± 11%; % Red (F): percent reduction in the total number of spontaneous contractions ([1]; 3 mg/kg p.o., prior lot of this compound (mp 234-236° C.)): -49 ± 8%; % Red (F): percent reduction in the total number of spontaneous contractions ([1]; 10 mg/kg p.o., prior lot of this compound (mp 234-236° C.)): -93 ± 3%; IC50 ([2]; Rattus norvegicus, prior lot (mp 234-236° C., softens 225° C.), n = 4, read-out: IC50 of a prior lot): 570 ± 340 nM
60 ± 14 nM	CCC(C)(C)Nc1c(NCc2ccc(C#N)cc2Cl)c(=O)c1=O [Example 76]	-57 ± 12%		IC50 ([2]; Rattus norvegicus, second lot (mp 215.5-216.0° C., softens 211.5° C.), n = 6, read-out: IC50 of a second lot): 130 ± 30 nM

Reference: US5780505A, “Substituted N-arylmethylamino derivatives of cyclobutene-3, 4-diones” (American Home Products Corporation, priority 1997, dated 1998)
